Read-outs that look alike come from different tables or passages of the source.

Data set [1] has as its system mouse cerebral synaptosomes. In words: Synaptosomal neurotransmitter uptake assay. The data set is classed as cell-based. As for the experimental part: To each tube, 5 μL of a test compound solution (final concentration 10 μM) in Buffer KRP or Buffer KRP alone were added. Samples were incubated at 4° C. or 37° C. for 1, 10, or 30 min and then immediately centrifuged and washed twice by resuspension-centrifugation with Buffer S (0.5 mL). Resulting pellets were resuspended in 170 μL of 0.1% aqueous formic acid and mixed with 330 μL of ACN.
96-well plate experiments: 250 μL aliquots of the synaptosome suspension were transferred to two 0.8-mL 96 well plates, one on ice (0° C. samples only) and one in a thermoblock (37° C. samples only), and equilibrated for 10 min. 5 μL of a test compound (0.5 mM; final concentration: 10 μM) in Buffer KRP or Buffer KRP blank were added 10, 20 or 30 min before the incubation termination. “0 min” samples were prepared by placing the test compound solution in a separate pre-chilled V-shape bottom 2-mL 96 well plate; at the end of incubation 200 μL aliquots of all samples were transferred to the 2-mL 96 well plate and centrifuged (2,500 g for 15 min at 4° C.) immediately. The resulting pellets were rinsed with Buffer KRP, followed by centrifugation, twice, then resuspended in 200 μL of 60% ACN containing 2.5 μM Glu-d5 as internal standard and stored at −80° C. until analysis.
(§1) Synaptosome uptake and high potassium-induced release assays were performed as described in Example 1. Uptake assays used 250 μL aliquots of the synaptosome suspension transferred to a pre-chilled 0.8 mL 96 well plate. 5 μL of a test compound solution (0.5 mM; final concentration: 10 μM to compare directly to our previous work was added to each well and incubated at 0° C. or 37° C. After 10, 20 or 30 min, samples were chilled on ice and immediately sedimented (2,500 g for 15 min at 4° C.) and washed with Buffer S (0.5 mL, ×2). Resulting pellets were resuspended in 200 μL of 60% ACN containing 5 μM GABA-d6 and stored at −80° C. until analysis. Potassium-induced release assay used 500 μL aliquots of the synaptosome suspension transferred to pre-chilled microcentrifuge tubes. 2.5 μL of a test compound solution (20 mM; final concentration: 100 μM) in Buffer KRP was added to each tube and incubated for 15 min at 37° C., briefly chilled on ice, and then immediately sedimented (8,000 g for 4 min at 4° C.) and washed with Buffer KRP, followed by centrifugation, twice. The resulting pellets were resuspended in 500 μL of Buffer KRP or Buffer K-KRP and incubated for 5, 10 or 15 min at 37° C., sedimented (8,000 g for 4 min at 4° C.), and washed with Buffer KRP. Resulting pellets were resuspended in 400 μL of 60% ACN containing 2.5 μM GABA-d6 as internal standard and stored at −80° C. until analysis.

In data set [2] the test system is mouse cerebral synaptosomes. In words: Potassium-induced neurotransmitter release assay. Format: cell-based. As to conditions: for synaptosome total GABA concentration following preincubation: 100 μM preincubation 15 min 37° C., vehicle 9.5±0.2; for reduction of synaptosome 4APA concentration by K+-induced membrane depolarization: 40 mM K+ vs 5 mM K+, 15 min; for endogenous GABA displaced in synaptosomes: once incorporated into synaptosomes. As for the experimental part:
To each tube, 2.5 μL of a test compound solution (final concentration 100 μM) in Buffer KRP or Buffer KRP alone were added. Samples were incubated for 15 min at 37° C., briefly chilled on ice, and then immediately centrifuged and washed twice with Buffer KRP. The resulting pellets were then resuspended in either Buffer KRP (500 μL) or Buffer K-KRP (500 μL). Samples were immediately centrifuged or incubated for 5, 10 or 15 min at 37° C., then centrifuged and washed with Buffer KRP. Resulting pellets were resuspended in 400 μL of 60% ACN containing 2.5 μM Glu-d5 and 2.5 μM Gln-d5 as internal standards.
as §1

Data set [3] deals with mouse hippocampal slice cultures. Briefly: Kainic acid neurodegeneration in hippocampal slice cultures (propidium iodide). Format: cell-based. As to conditions: 5 or 50 μM compound. As for the experimental part:
We employed a standard technique of ex vivo experimentation to determine the efficacy of 2MeGlu, 2MeGln, and 4APA to prevent neurodegeneration. Mouse hippocampal slice cultures were prepared and then exposed to one of the three test compounds at either 5 or 50 μM for one hour. Then media was changed to contain either 2 or 5 μM kanic acid (KA) for 24 hr. […] After 24, the amount of neurodegeneration was assayed with propidium iodide staining. Increasing the dose of KA led to greater neurodegeneration at 5 μM than at 2 μM.

Another data set deals with C57Bl/6 mice. The data set is classed as in vivo. As to conditions: for mortality after single dose: mouse, in vivo; for distance moved in the novel cage: single 100, 300, or 900 mg/kg IP, dose- and time-dependent. As for the experimental part:
Dosing: (R)-2MeGlu (30, 100, 300, or 900 mg/kg), (S)-2MeGlu (30, 100, 300, or 900 mg/kg), rac-2MeGln (30, 100, 300, or 900 mg/kg) and vehicle (PBS) were administered at 10 ml/kg IP dosing volume. Three mice were dosed once with the assigned drug (100, 300, or 900 mg/kg) or vehicle and immediately placed in a new cage for novel cage observation. Subsequently, six mice were dosed once with the assigned drug (30 or 100 mg/kg) or vehicle and tested by SHIRPA, activity chamber, and then hot plate tests.
The mouse was dosed and immediately placed in the center of a clean, Innovive disposable rat cage with bedding (dimensions: 17″L×13.4″W×7.8″H) and allowed to move freely while being tracked automatically. Mice were monitored with Ethovision XT tracking software for the distance moved and average velocity during the 60-minute trial. They were returned to their home cage after the test. A new cage was used for each mouse.
Exploratory behavioral tests were performed exactly as previously described by us using 2-month-old C57Bl/6 male mice, Example 1. First, we assessed safety and tolerability of acute exposure to 4APA enantiomers in 22 mice by novel cage observation at 100, 300, or 900 mg/kg IP compared to vehicle (PBS) IP (n=3 or 4 mice per group without sample calculation, based on our previous study. Next, we evaluated 24 drug naïve mice with a 23-measure battery of neurologic dysfunction in mice (SHIRPA) (Rogers et al., 2001), automated activity chamber assessment, and hot plate latency acutely following 30 or 100 mg/kg IP compared to vehicle IP (n=4 or 5 mice per group). No exclusion criteria were predetermined and no randomization was performed to allocate subjects in the study.

Another data set relates to Line 61 mice. In words: Transgenic α-synuclein mouse model, tapered beam test. The data set is classed as in vivo. The source says: Line 61 mice overexpress human α-synuclein under control of the mouse Thy-1 promoter. The transgene is X-linked so females have variable transgene expression; for this reason, we focused on male mice. […] Categorical data from the tapered beam task were unblinded and analyzed by X square test (P<0.005).

The target of a further data set is T1, human glutaminase GLS1 (Homo sapiens, UniProt O94925).
T1 construct: purchased Sigma SRP0516
T1 sequence (O94925 55-669): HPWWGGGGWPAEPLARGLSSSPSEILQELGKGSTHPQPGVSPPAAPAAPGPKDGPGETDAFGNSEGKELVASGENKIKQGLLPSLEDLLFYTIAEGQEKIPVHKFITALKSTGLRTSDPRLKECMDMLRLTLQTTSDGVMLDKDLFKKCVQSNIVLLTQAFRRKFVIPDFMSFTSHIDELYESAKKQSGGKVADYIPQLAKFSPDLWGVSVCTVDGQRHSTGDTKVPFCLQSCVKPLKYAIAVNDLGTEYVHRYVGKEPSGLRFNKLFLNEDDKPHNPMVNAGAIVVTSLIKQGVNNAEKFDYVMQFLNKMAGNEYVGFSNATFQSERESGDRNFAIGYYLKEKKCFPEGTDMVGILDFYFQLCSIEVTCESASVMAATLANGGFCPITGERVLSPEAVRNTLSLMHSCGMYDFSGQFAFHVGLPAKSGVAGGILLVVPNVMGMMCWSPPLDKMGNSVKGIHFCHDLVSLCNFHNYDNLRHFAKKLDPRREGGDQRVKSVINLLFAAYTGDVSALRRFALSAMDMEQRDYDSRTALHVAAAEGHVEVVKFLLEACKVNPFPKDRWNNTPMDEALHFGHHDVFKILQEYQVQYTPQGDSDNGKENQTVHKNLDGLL
Briefly: Catalysis of 2MeGln hydrolysis by GLS1 glutaminase. The data set is classed as biochemical. The following applies: human GLS1. As for the experimental part:
The procedure was adapted from an existing protocol. To a reaction mixture in a 1.5 mL microcentrifuge tube containing 10 mM rac-2MeGln or L-Gln-^13C2 in 100 mM phosphate pH 7.4 buffer made in 20% atom ^18O water, recombinant GLS1 (final concentration: 5 ng/mL) was added. The tubes were incubated in a preheated thermomixer at 37° C. and periodically shaken at 600 rpm (30 s on, 30 s off). 5 μL aliquots were collected in triplicate every 5 min and immediately diluted with 195 μL of cold 60% ACN containing 10 μM Glu-d5 and Gln-d5 as internal standards in a 96 well plate. After collecting all samples, the plate was shaken at 1000 rpm for 5 min at room temperature, and then stored at −80° C. Before analysis the plate was thawed and 10 μL aliquots of the extracted reaction mixtures were diluted with 190 μL of 90% acetonitrile.
The quantification of the newly formed 2MeGlu in the presence of the preexisting trace amounts was performed in the following way. Peak area ratio of Glu-^13C2 to Glu-^13C2^18O was calculated in all samples containing Glu-^13C2. The mean ratio value was then applied to calculate the hypothetical peak area of the newly formed 2MeGlu based on the directly measured 2MeGlu-^18O peak area. The ratio of the newly formed 2MeGlu peak area and the total 2MeGlu peak area was applied to calculate the concentration of the newly formed 2MeGlu from the total 2MeGlu concentration determined directly using the calibration curve.

`CC(N)CCC(=O)O` (racemic) [rac-4APA, (rac)-4-Aminopentanoic acid]: the transport into synaptosomes result in data set [1] (10 μM substrate, 37° C.) is “transported into synaptosomes”. The “synaptosome concentration, % of (R)-4APA” value in data set [1] (10 μM, 30 min at 37° C.) worked out at 78.5±3.8%. In data set [2], the “synaptosome total GABA concentration following preincubation” value amounted to 4.4±0.4 nmol/mg protein, the “reduction of synaptosome 4APA concentration by K+-induced membrane depolarization” value (“reduction” below) was determined as 62.2±8.6% and the “endogenous GABA displaced in synaptosomes” value (“endogenous GABA displaced” for short) is “about 55%”. In data set [2] (preincubation with compound), the “synaptosome Glu concentration” value is “not significantly changed”. In data set [2] (preloaded with 100 μM for 15 min at 37° C., high-potassium depolarization), the “potassium-induced release from synaptosomes” value was “high potassium concentration-dependent release”. In addition, in data set [3], the neuroprotection result was “not neuroprotective”.
On to `C[C@@H](N)CCC(=O)O` [(R)-4APA, (R)-4-aminopentanoic acid], for which the “synaptosome concentration of 4APA” value in data set [1] (10 μM, 30 min at 37° C.) came to 9.3±0.6 nmol/mg protein. In addition, in data set [1] (mouse synaptosomes), the “synaptosome uptake, faster than (S)-4APA” value is listed as 4- to 5 fold. Also, in data set [2], the “synaptosome total GABA concentration following preincubation” value was found to be 3.8±0.5 nmol/mg protein, the “reduction” value was 55.3±6.8% and the “endogenous GABA displaced” value is given as “about 55%”. The “time post injection until not significantly different from vehicle, novel cage” value in the data set with C57Bl/6 mice (300 mg/kg IP) was found to be 13 min. In addition, in the data set on C57Bl/6 mice (900 mg/kg IP), the “time post injection until not significantly different from vehicle, novel cage” value stood at 42 min. Moreover, in the data set with C57Bl/6 mice, the “mortality after single dose” value was “no mouse died” and the “distance moved in the novel cage” value was “significantly decreased”. In the data set with Line 61 mice (5 or 50 mg/kg/d IP, seven days), the “body weight or deaths” value is recorded as “no change in body weight or deaths”. In addition, the “motor function, tapered beam” value in the data set with Line 61 mice (7 days IP, high dose (50 mg/kg/d) S-2MeGlu, either dose (5 or 50 mg/kg/d) R-4APA) is given as “improved motor function similar to WT mice”. For the same molecule, in the data set on Line 61 mice (Line 61 mice), the “α-synuclein accumulation in brain by immunohistochemistry vs vehicle” value was “no significant change”.
With `C[C@H](N)CCC(=O)O` [(S)-4APA, (S)-4-aminopentanoic acid], the “synaptosome concentration, % of (R)-4APA” value in data set [1] (10 μM, 30 min at 37° C.) amounted to 22.8±0.8%. Besides, in data set [2], the “synaptosome total GABA concentration following preincubation” value is listed as 6.0±0.6 nmol/mg protein, the “reduction” value is “did not significantly reduce” and the “endogenous GABA displaced” value was “approximately 30%”. Further, in the data set with C57Bl/6 mice, the “mortality after single dose” value was “no mouse died” and the “distance moved in the novel cage” value was “significantly decreased”.
Turning to `C[C@](N)(CCC(N)=O)C(=O)O` [(S)-2MeGln, (S)-2-methylglutamine], the “substrate of GLS1 (hydrolysis to 2MeGlu)” value on human glutaminase GLS1 is “substrates”.

The record behind these values is patent US12589087B2, “Enantiomer selective action on neurotransmission” (The Board of Trustees of the Leland Stanford Junior …, priority 2021, dated 2026).
